Molecular target: PCAF719-832 bromodomain (Homo sapiens (Human), UniProt Q92831)
Assay: PCAF AlphaLisa binding assay
Conditions: PCAF bromodomain 225 nM, biotinylated small molecule ligand 6 nM

PCAF719-832 bromodomain, sequence (Q92831 719-832): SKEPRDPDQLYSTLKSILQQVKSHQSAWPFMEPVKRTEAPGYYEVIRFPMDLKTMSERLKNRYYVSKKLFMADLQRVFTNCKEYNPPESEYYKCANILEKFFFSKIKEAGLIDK

Structure (SMILES)	IC50
CN(C)C(CNc1nn(C)c(=O)c2[nH]ccc12)c1ccccc1 (racemic) [Example 10, 4-((2-(dimethylamino)-2-phenylethyl)amino)-6-methyl-1H-pyrrolo[2,3-d]pyridazin-7(6H)-one]	240 nM
CC(CN(C)C)Nc1nn(C)c(=O)c2ccncc12 (racemic) [Example 12, 4-((1-(dimethylamino)propan-2-yl)amino)-2-methylpyrido[3,4-d]pyridazin-1(2H)-one]	220 nM
CC(CN(C)C)Nc1nn(C)c(=O)c2cnccc12 (racemic) [Example 13, 1-((1-(dimethylamino)propan-2-yl)amino)-3-methylpyrido[3,4-d]pyridazin-4(3H)-one]	150 nM
CN(C)C(CNc1nn(C)c(=O)c2ccccc12)c1ccc(F)cc1 (racemic) [Example 20, 4-((2-(dimethylamino)-2-(4-fluorophenyl)ethyl)amino)-2-methylphthalazin-1(2H)-one]	110 nM
COc1ccc(C(CNc2nn(C)c(=O)c3ccccc23)N(C)C)cc1 (racemic) [Example 21, 4-((2-(dimethylamino)-2-(4-methoxyphenyl)ethyl)amino)-2-methylphthalazin-1(2H)-one]	64 nM
CN(C)C(CNc1nn(C)c(=O)c2ccccc12)c1ccccc1 (racemic) [Example 22, 4-((2-(dimethylamino)-2-phenylethyl)amino)-2-methylphthalazin-1(2H)-one]	140 nM
CN(C)C(CNc1nn(C)c(=O)c2ccccc12)c1ccccc1Cl (racemic) [Example 25, 4-((2-(2-chlorophenyl)-2-(dimethylamino)ethyl)amino)-2-methylphthalazin-1(2H)-one]	110 nM
CN(C)C(CNc1nn(C)c(=O)c2ccccc12)c1ccccc1F (racemic) [Example 26, 4-((2-(dimethylamino)-2-(2-fluorophenyl)ethyl)amino)-2-methylphthalazin-1(2H)-one]	110 nM
CN(C)C(CNc1nn(C)c(=O)c2ccccc12)c1ccc(Cl)cc1 (racemic) [Example 27, 4-((2-(4-chlorophenyl)-2-(dimethylamino)ethyl)amino)-2-methylphthalazin-1(2H)-one]	120 nM
CC(CN(C)C)Nc1nn(C)c(=O)c2ccccc12 (racemic) [Example 28, 4-((1-(dimethylamino)propan-2-yl)amino)-2-methylphthalazin-1(2H)-one]	66 nM
CN1CCCC1CNc1nn(C)c(=O)c2ccccc12 (racemic) [Example 30, 2-methyl-4-(((1-methylpyrrolidin-2-yl)methyl)amino)phthalazin-1(2H)-one]	1700 nM
C/C=C/Cn1nc(NC(C)CN(C)C)c2ccccc2c1=O (racemic) [Example 31, (E)-2-(but-2-en-1-yl)-4-((1-(dimethylamino)propan-2-yl)amino)phthalazin-1(2H)-one]	8100 nM
Cn1nc(N[C@@H]2CCCC[C@H]2N)c2ccccc2c1=O (racemic) [Example 35, 4-(((1R,2R)-2-aminocyclohexyl)amino)-2-methylphthalazin-1(2H)-one]	12000 nM
CN(C)C(CNc1nn(C)c(=O)c2c1CCCC2)c1ccccc1 (racemic) [Example 36, 4-((2-(dimethylamino)-2-phenylethyl)amino)-2-methyl-5,6,7,8-tetrahydrophthalazin-1(2H)-one]	820 nM
CN(C)C(CNc1nn(C)c(=O)c2c1CCC2)c1ccccc1 (racemic) [Example 37, 4-((2-(dimethylamino)-2-phenylethyl)amino)-2-methyl-2,5,6,7-tetrahydro-1H-cyclopenta[d]pyridazin-1-one]	130 nM
CN(C)C(CNc1nn(C)c(=O)c2ccccc12)C1CCCCC1 (racemic) [Example 38, 4-((2-cyclohexyl-2-(dimethylamino)ethyl)amino)-2-methylphthalazin-1(2H)-one]	700 nM
CCC(CNc1nn(C)c(=O)c2ccccc12)N(C)C (racemic) [Example 39, 4-((2-(dimethylamino)butyl)amino)-2-methylphthalazin-1(2H)-one]	180 nM
CN1CCCC(Nc2nn(C)c(=O)c3ccccc23)C1 (racemic) [Example 43, 2-methyl-4-((1-methylpiperidin-3-yl)amino)phthalazin-1(2H)-one]	790 nM
CN1CCC(Nc2nn(C)c(=O)c3ccccc23)C1 (racemic) [Example 44, 2-methyl-4-((1-methylpyrrolidin-3-yl)amino)phthalazin-1(2H)-one]	260 nM
CC(CN(C)C)Nc1nn(C)c(=O)c2c1CCN(c1ccc(Cl)cc1)C2 (racemic) [Example 89, 6-(4-chlorophenyl)-1-((1-(dimethylamino)propan-2-yl)amino)-3-methyl-5,6,7,8-tetrahydropyrido[3,4-d]pyridazin-4(3H)-one]	1200 nM
CC(CN(C)C)Nc1nn(C)c(=O)c2c1CN(c1ccc(Cl)cc1)CC2 (racemic) [Example 90, 6-(4-chlorophenyl)-4-((1-(dimethylamino)propan-2-yl)amino)-2-methyl-5,6,7,8-tetrahydropyrido[3,4-d]pyridazin-1(2H)-one]	820 nM
C[C@@H](CNc1nn(C)c(=O)c2cccnc12)N(C)C (single isomer, unassigned) [Example 7A]	860 nM
C[C@H](CNc1nn(C)c(=O)c2cccnc12)N(C)C (single isomer, unassigned) [Example 7B]	72 nM
C[C@@H](CN(C)C)Nc1nn(C)c(=O)c2cccnc12 (single isomer, unassigned) [Example 8A]	42 nM
C[C@H](CN(C)C)Nc1nn(C)c(=O)c2cccnc12 (single isomer, unassigned) [Example 8B]	> 5000 nM

Next, values leading:

IC50	Structure (SMILES)
180 nM	CN(C)[C@@H]1CCCC[C@H]1Nc1nn(C)c(=O)c2cccnc12 (single isomer, unassigned) [Example 11A]
> 5000 nM	CN(C)[C@H]1CCCC[C@@H]1Nc1nn(C)c(=O)c2cccnc12 (single isomer, unassigned) [Example 11B]
> 5000 nM	Cn1nc(N[C@@H]2CCCC[C@@H]2N)c2ncccc2c1=O (single isomer, unassigned) [Example 14A]
1500 nM	Cn1nc(N[C@H]2CCCC[C@H]2N)c2ncccc2c1=O (single isomer, unassigned) [Example 14B]
78 nM	CN(C)[C@H]1CCCC[C@H]1Nc1nn(C)c(=O)c2cccnc12 (single isomer, unassigned) [Example 15A]
1500 nM	CN(C)[C@@H]1CCCC[C@@H]1Nc1nn(C)c(=O)c2cccnc12 (single isomer, unassigned) [Example 15B]
> 5000 nM	CCn1nc(N[C@H](C)CN(C)C)c2ccccc2c1=O (single isomer, unassigned) [Example 17A]
280 nM	CCn1nc(N[C@@H](C)CN(C)C)c2ccccc2c1=O (single isomer, unassigned) [Example 17B]
47 nM	CN(C)[C@H](CNc1nn(C)c(=O)c2ccccc12)c1ccccc1 (single isomer, unassigned) [Example 22A]
550 nM	CN(C)[C@@H](CNc1nn(C)c(=O)c2ccccc12)c1ccccc1 (single isomer, unassigned) [Example 22B]
550 nM	CC[C@@H](CNc1nn(C)c(=O)c2ccccc12)N(C)C (single isomer, unassigned) [Example 39A]
89 nM	CC[C@H](CNc1nn(C)c(=O)c2ccccc12)N(C)C (single isomer, unassigned) [Example 39B]

From patent US10155764B2, “Therapeutic compounds and uses thereof” (GENENTECH, INC., priority 2014, dated 2018)
